Consider 27 compounds from US8846673B2, “Azaindazoles as kinase inhibitors and use thereof” (Bristol-Myers Squibb Company, priority 2009, dated 2014).

Broadly, the IC50 is the concentration at which inhibition is half-maximal.

human recombinant Btk, sequence (Q06187 whole entry): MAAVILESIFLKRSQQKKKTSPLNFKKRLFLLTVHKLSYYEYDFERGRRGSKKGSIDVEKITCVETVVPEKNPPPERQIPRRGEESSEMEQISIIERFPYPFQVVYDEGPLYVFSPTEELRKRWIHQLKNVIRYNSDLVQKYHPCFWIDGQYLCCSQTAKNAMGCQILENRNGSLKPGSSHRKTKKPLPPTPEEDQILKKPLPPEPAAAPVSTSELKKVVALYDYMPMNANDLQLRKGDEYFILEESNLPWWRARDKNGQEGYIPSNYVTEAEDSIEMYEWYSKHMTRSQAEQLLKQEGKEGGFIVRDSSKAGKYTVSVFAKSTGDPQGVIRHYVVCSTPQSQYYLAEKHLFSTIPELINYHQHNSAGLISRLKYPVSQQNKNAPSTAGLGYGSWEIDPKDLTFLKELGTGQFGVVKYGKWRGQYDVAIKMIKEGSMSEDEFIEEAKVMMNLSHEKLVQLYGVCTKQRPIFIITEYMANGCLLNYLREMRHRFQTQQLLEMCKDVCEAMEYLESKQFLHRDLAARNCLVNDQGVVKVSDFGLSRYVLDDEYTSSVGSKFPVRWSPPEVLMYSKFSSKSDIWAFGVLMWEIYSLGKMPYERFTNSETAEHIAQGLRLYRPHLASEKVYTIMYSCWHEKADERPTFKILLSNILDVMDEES

The first assay deals with Btk (pY551) in Ramos cells (Homo sapiens (Human), UniProt Q06187). In words: Btk Phosphorylation Assay. It counts as cell-based. To be noted: 1 hr preincubation, stimulated with anti-human IgM+IgG 50 μg/mL for 2 min. Here is the method: Btk Phosphorylation Assay
Btk (pY551) in Ramos cells, sequence (Q06187 whole entry, the tested form may be a part): as the sequence (Q06187 whole entry) above
Ramos cells (˜6×10^6 cells/10 were incubated in the presence of Btk inhibitors for 1 hr at 37° C. before being stimulated with anti-human IgM+IgG (F(ab′)2 fragment, Jackson ImmunoResearch, Catalog No. 109-006-127) at 50 μg/mL for exactly 2 min at 37° C. Cells were immediately fixed by adding an equal volume of pre-warmed BD Phosflow Fix buffer I (BD Biosciences, catalog number 557870) to the cell suspension. After incubating at 37° C. for 10 minutes, the cells were washed once with 3 mL FACS washing buffer (1% FBS/PBS) and permeabilized by adding 0.5 mL of cold BD Phosflow Penn Buffer III (BD Biosciences, Catalog No. 558050) and incubating for 30 minutes on ice. The cells were washed an additional two times with 3 mL BD FACS washing buffer, re-suspended in 100 μL FACS washing buffer, stained with 20 μL, Alexa647 anti-Btk (pY551) (BD Biosciences, Catalog No. 558134), incubated at room temperature for 30 minutes in the dark, and washed once with 3 ml of FACS washing buffer. The cells were re-suspended in 400 μl FACS wash buffer and analyzed using FACSCalibur (BD Biosciences). Median fluorescent intensity (MFI) on Alexa 647 (FL-4) data were collected and used for calculations of inhibition.
For `Nc1n[nH]c2nccc(-c3ccc(Oc4ccccc4)cc3)c12` [Example 6, 4-(4-Phenoxyphenyl)-1H-pyrazolo[3,4-b]pyridin-3-amine], 320 nM corresponded to half-maximal inhibition (IC50).

The target in another assay is human recombinant Btk (Homo sapiens (Human), UniProt Q06187). In words: Human Recombinant Btk Enzyme Assay (LLE_Btk). To be noted: human recombinant Btk 1 nM, ATP 20 μM, 60 min room temperature. In kind it is biochemical. How it is done:
Human Recombinant Btk Enzyme Assay
After incubating at room temperature for 60 min, the reaction was terminated by adding 45 μl of 35 mM EDTA to each sample. The reaction mixture was analyzed on the Caliper LABCHIP® 3000 (Caliper, Hopkinton, Mass.) by electrophoretic separation of the fluorescent substrate and phosphorylated product. […] Compounds were dissolved at 10 mM in dimethylsulfoxide (DMSO) and evaluated at eleven concentrations.
On to `Cc1cccc(Oc2ccc(-c3cc(C4CCCC4)nc4[nH]nc(N)c34)cc2)c1` [Example 5, 6-Cyclopentyl-4-(4-(3-methylphenoxy)phenyl)-1H-pyrazolo[3,4-b]pyridin-3-amine], for which the IC50 came to 290 nM.

In the case of `Cc1csc(NC(=O)NC2CCN(c3cc(-c4ccc(Oc5ccccc5)cc4)c4c(N)n[nH]c4n3)C2)n1` (stereo not drawn) [Example 31, 1-(1-(3-Amino-4-(4-phenoxyphenyl)-1H-pyrazolo[3,4-b]pyridin-6-yl)-3-pyrrolidinyl)-3-(4-methyl-1,3-thiazol-2-yl)urea], the IC50 came to 9410 nM.

As for `CC(C)Oc1ccc(-c2cncc3[nH]nc(N)c23)cc1` [Example 43, 4-(4-Isopropoxyphenyl)-1H-pyrazolo[3,4-c]pyridin-3-amine], the IC50 worked out at 9310 nM.

As for `Nc1n[nH]c2cncc(-c3ccc(OC4CCCC4)cc3)c12` [Example 44, 4-(4-(Cyclopentyloxy)phenyl)-1H-pyrazolo[3,4-c]pyridin-3-amine], the IC50 is 9490 nM. `Nc1n[nH]c2cncc(-c3ccc(C(=O)N4CCCC4)cc3)c12` [Example 47, 4-(4-(1-Pyrrolidinylcarbonyl)phenyl)-1H-pyrazolo[3,4-c]pyridin-3-amine]: the IC50 stood at 40600 nM. On the same count and under the same terms, in the case of `Nc1n[nH]c2c(-c3ccc(NC(=O)c4ccccc4)cc3)ncc(-c3ccc(Oc4ccccc4)cc3)c12` [Example 61, N-(4-(3-Amino-4-(4-phenoxyphenyl)-1H-pyrazolo[3,4-c]pyridin-7-yl)phenyl)benzamide] it was 14900 nM. Same read-out and setting: in the case of `CS(=O)(=O)Nc1cccc(-c2ncc(-c3ccc(Oc4ccccc4)cc3)c3c(N)n[nH]c23)c1` [Example 62, N-(3-(3-Amino-4-(4-phenoxyphenyl)-1H-pyrazolo[3,4-c]pyridin-7-yl)phenyl) methanesulfonamide] it was 270 nM; in that of `Nc1n[nH]c2c(-c3ccc(Cl)c(Cl)c3)ncc(-c3ccc(Oc4ccccc4)cc3)c12` [Example 82, 7-(3,4-Dichlorophenyl)-4-(4-phenoxyphenyl)-1H-pyrazolo[3,4-c]pyridin-3-amine], 9180 nM. Still for that read-out and setting: in the case of `Nc1n[nH]c2c(-c3ccc4[nH]ccc4c3)ncc(-c3ccc(Oc4ccccc4)cc3)c12` [Example 95, 7-(1H-Indol-5-yl)-4-(4-phenoxyphenyl)-1H-pyrazolo[3,4-c]pyridin-3-amine] it was 250 nM; in that of `CS(=O)(=O)Nc1ccc(-c2ncc(-c3ccc(Oc4ccccc4)cc3)c3c(N)n[nH]c23)cc1` [Example 96, N-(4-(3-Amino-4-(4-phenoxyphenyl)-1H-pyrazolo[3,4-c]pyridin-7-yl)phenyl)methanesulfonamide], 280 nM. Regarding `CC(C)COc1cccc(-c2ncc(-c3ccc(Oc4ccccc4)cc3)c3c(N)n[nH]c23)c1` [Example 102, 7-(3-Isobutoxyphenyl)-4-(4-phenoxyphenyl)-1H-pyrazolo[3,4-c]pyridin-3-amine], the IC50 is 14000 nM. Same read-out and setting: in the case of `Cc1ccccc1-c1ncc(-c2ccc(Oc3ccccc3)cc2)c2c(N)n[nH]c12` [Example 107, 7-(2-Methylphenyl)-4-(4-phenoxyphenyl)-1H-pyrazolo[3,4-c]pyridin-3-amine] it was 12700 nM; in that of `Nc1n[nH]c2c(-c3cccc(C(F)(F)F)c3)ncc(-c3ccc(Oc4ccccc4)cc3)c12` [Example 108, 4-(4-Phenoxyphenyl)-7-(3-(trifluoromethyl)phenyl)-1H-pyrazolo[3,4-c]pyridin-3-amine], 16100 nM; in that of `Nc1n[nH]c2c(-c3cccc(OC(F)(F)F)c3)ncc(-c3ccc(Oc4ccccc4)cc3)c12` [Example 113, 4-(4-Phenoxyphenyl)-7-(3-(trifluoromethoxy)phenyl)-1H-pyrazolo[3,4-c]pyridin-3-amine], 13800 nM. On the same count and under the same terms, in the case of `Nc1n[nH]c2nc(-c3cccs3)nc(-c3ccc(Oc4ccccc4)cc3)c12` [Example 120, 4-(4-Phenoxyphenyl)-6-(2-thienyl)-1H-pyrazolo[3,4-δ]pyrimidin-3-amine] it was 240 nM; in that of `COc1cccc(-c2cnc(Nc3ccccc3)c3[nH]nc(N)c23)c1` [Example 128, 4-(3-Methoxyphenyl)-N^7-phenyl-1H-pyrazolo[3,4-c]pyridine-3,7-diamine], 290 nM.

In the case of `COc1cccc(-c2cnc(Nc3ccccc3Cl)c3[nH]nc(N)c23)c1` [Example 130, N^7-(2-Chlorophenyl)-4-(3-methoxyphenyl)-1H-pyrazolo[3,4-c]pyridine-3,7-diamine], the IC50 worked out at 230 nM. The same measure, in the same setting: in the case of `COc1ccc(-c2cnc(Nc3ccccc3C)c3[nH]nc(N)c23)cc1` [Example 132, 4-(4-Methoxyphenyl)-N^7-(2-methylphenyl)-1H-pyrazolo[3,4-c]pyridine-3,7-diamine] it was 260 nM. Same read-out and setting: in the case of `Cc1ccccc1Nc1ncc(-c2cccc(OC(C)C)c2)c2c(N)n[nH]c12` [Example 137, 4-(3-Isopropoxyphenyl)-N^7-(2-methylphenyl)-1H-pyrazolo[3,4-c]pyridine-3,7-diamine] it was 240 nM; in that of `Nc1n[nH]c2cc(-c3ccc(-c4nnn[nH]4)cc3)nc(-c3ccc(Oc4ccccc4)cc3)c12` [Example 223, 4-(4-Phenoxyphenyl)-6-(4-(1H-tetrazol-5-yl)phenyl)-1H-pyrazolo[4,3-c]pyridin-3-amine], 2 nM; in that of `Nc1n[nH]c2c(-c3ccccn3)cnc(-c3ccc(Oc4ccccc4)cc3)c12` [Example 225, 4-(4-Phenoxyphenyl)-7-(2-pyridinyl)-1H-pyrazolo[4,3-c]pyridin-3-amine], 1 nM. For `Nc1n[nH]c2cc(C3CCCN(C(=O)Nc4ccccc4)C3)nc(-c3ccc(Oc4ccccc4)cc3)c12` (stereo not drawn) [Example 236, 3-(3-Amino-4-(4-phenoxyphenyl)-1H-pyrazolo[4,3-c]pyridin-6-yl)-N-phenyl-1-piperidinecarboxamide], the IC50 stood at 3 nM. On the same count and under the same terms, in the case of `C=CC(=O)N1CCCC(c2cc3[nH]nc(N)c3c(-c3ccc(Oc4ccccc4)cc3)n2)C1` (stereo not drawn) [Example 237, 6-(1-Acryloyl-3-piperidinyl)-4-(4-phenoxyphenyl)-1H-pyrazolo[4,3-c]pyridin-3-amine] it was 4 nM; in that of `COC(=O)C(=O)N1CCCC(c2cc3[nH]nc(N)c3c(-c3ccc(Oc4ccccc4)cc3)n2)C1` (stereo not drawn) [Example 238, Methyl(3-(3-amino-4-(4-phenoxyphenyl)-1H-pyrazolo[4,3-c]pyridin-6-yl)-1-piperidinyl)(oxo)acetate], 2 nM; in that of `Nc1n[nH]c2cc(C3CCN(C(=O)Nc4ccccc4)CC3)nc(-c3ccc(Oc4ccccc4)cc3)c12` [Example 242, 4-(3-Amino-4-(4-phenoxyphenyl)-1H-pyrazolo[4,3-c]pyridin-6-yl)-N-phenyl-1-piperidinecarboxamide], 2 nM.

Consider `CN(C)C(=O)Cn1ccc(Nc2cc3[nH]nc(N)c3c(-c3ccc(Oc4ccccc4)cc3)n2)n1` [Example 249, 2-(3-((3-Amino-4-(4-phenoxyphenyl)-1H-pyrazolo[4,3-c]pyridin-6-yl)amino)-1H-pyrazol-1-yl)-N,N-dimethylacetamide], for which the IC50 was found to be 3 nM.
